Common to all, as to experiment: NCI anticancer screen, dose series, 48 h
Assay [1] concerns OVCAR-8 ovarian.
Assay [2] deals with CAKI-1 renal.
Assay [3] has as its system A498 renal.
Assay [4] concerns COLO 205 colon.
Assay [5] has as its system HOP-92 NSCLC.
Assay [6] deals with UO-31 renal.
Assay [7] relates to MOLT-4 leukemia.
Assay [8] relates to OVCAR-3 ovarian.
The test system of assay [9] is DU-145 prostate.
The subject of assay [10] is SK-OV-3 ovarian.
In assay [11] the test system is HS 578T breast.

“And” between values parts separate entries of the source, which are not always exact repeats. Identical values can stand only once.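 The compound was tested at five concentrations on cells cultured in 96-well plates, with a 48-hour exposure period. Abbreviation: GI50, concentration required for 50% inhibition of growth. TGI: total growth inhibition.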

With `O=S(=O)(O)c1cc(Cl)c(O)c2ncc(Cl)cc12`, the TGI in [1], in assay [2], in assay [3], in assay [4], in assay [5] and in assay [6] was above 100 µM each time. The results for the TGI in assay [7], in assay [8] and in [9] were 66.4 µM, above 100 µM and above 100 µM, respectively.

For `COc1cc2c(cc1O)[C@H](C)C(c1ccc(Cl)cc1)O2` (some centres not stated), the TGI in assay [2] is 49.2 µM; in [3], above 100 µM; in [10] it was above 100 µM; in assay [4] it was above 100 µM; in [5], 40.4 µM; in assay [6] it was 79.4 µM. Moreover, the results for the TGI in [7] and in assay [8] were 40.9 µM and above 100 µM, respectively.

Take `Cc1cc(-c2ccc(C(=O)C(Cl)(Cl)Cl)[nH]2)on1`: the TGI is above 100 µM in assay [1]; 36.7 µM in [2]; above 100 µM in assay [3]; above 100 µM in assay [10]; above 100 µM in [4]; above 100 µM in assay [5]. In addition, the TGI in assay [6] was 56.7 µM; in assay [7], above 100 µM; in assay [8] it was 90.1 µM; in [9] it was 39.6 µM.

Take `N#CI1OC(=O)c2ccccc21`: the TGI in assay [1], in assay [2], in assay [3], in assay [10], in assay [4] and in [6] was above 100 µM throughout. Moreover, the TGI in assay [7], in [8] and in assay [9] was above 100 µM throughout.

Turning to `COC(=O)/C(=C/c1ccc(OC)cc1)C(C(=O)O)=C(C)C`, the TGI in assay [1], in assay [2], in assay [3], in [10], in [4] and in assay [5] was above 100 µM in each case. Besides, the TGI in assay [6], in assay [7] and in assay [8] was above 100 µM throughout.

As to `O=C(CCN1CCCCC1CCO)Nc1ccc2c(c1)C(=O)c1ccc(NC(=O)CCN3CCCCC3CCO)cc1C2=O` (configuration not stated), the TGI was 15.1 µM in assay [1]; 57.5 µM in [2]; 8.45 µM in [3]; 22.6 µM in assay [10]; 10.4 µM in assay [4]; 31 µM in assay [5]. Further, the results for the TGI in assay [6], in [7] and in assay [8] were above 100 µM, 39.1 µM and 9.03 µM, respectively.

In the case of `CCOC(=O)C1NCCc2c1[nH]c1ccccc21` (configuration not stated), the TGI in assay [1], in assay [2], in assay [10], in assay [4], in assay [5] and in assay [7] was above 10 µM each time. The TGI in [8] and in [9] was above 10 µM throughout.

In the case of `CCCCOC1CC2(c3ccc(OC)cc3)C(=O)c3ccccc3N2O1` (configuration not stated), the TGI is above 100 µM in assay [1]; above 100 µM in [2]; above 10 µM in [3]; above 100 µM in assay [10]; 54.1 µM in [4]; above 10 µM in assay [6]. The TGI was 61.5 µM in assay [7] and above 100 µM in assay [8].

For `CCOC(=O)c1ccc(NC2Oc3cc4c(cc3C(c3cc(OC)c(OC)c(OC)c3)C2C)OCO4)cc1` (configuration not stated), the TGI in assay [1] is 33 µM; in assay [2], 0.786 µM; in assay [3] it was above 100 µM; in assay [10] it was above 21.1 µM; in assay [4] it was 0.645 µM; in assay [5], 32.2 µM. Moreover, the TGI in assay [6] was 4.65 µM; in [7] it was 11.5 µM; in assay [9], above 100 µM.

`CC1=C/C(=C(\c2ccc(N(C)C)cc2)c2ccc([N+](C)(C)C)cc2)C=CC1=[N+](C)C`: the TGI in assay [1] is 69.8 µM; in [2] it was 41.1 µM; in assay [3], 36.7 µM; in assay [10] it was 31.6 µM; in assay [4], 85.4 µM; in [5], 30.6 µM. In addition, the TGI in assay [6] turned out to be 78.1 µM; in assay [7], 28.2 µM; in assay [8] it was 24.4 µM.

`C=C1CC2CC[C@@]34C[C@@H]5O[C@@H]6C(O[C@H]7CC[C@H](CC(=O)OC8[C@@H](C)C9OC%10C[C@]%11(C[C@@H]%12O[C@@]%13(C[C@@H](C)[C@@H]%12O%11)C[C@H](C)[C@@H]%11OC%12CC(C(O)CO)OC%12C[C@@H]%11O%13)OC%10CC9O[C@H]8C[C@H]8O[C@@H](CC[C@@H]1O2)C[C@@H](C)C8=C)O[C@@H]7[C@@H]6O3)C5O4` (some centres not stated): the GI50 in [1], in assay [2], in assay [3], in assay [10], in [4] and in assay [5] was below 0.000148 µM in each case. In addition, the figures for the GI50 in assay [6], in [7] and in assay [8] were 0.505 µM, below 0.000148 µM and below 0.000148 µM, respectively. The TGI in assay [1] is 0.0305 µM; in assay [2], above 1.48 µM; in assay [3], 0.0167 µM; in assay [5], above 1.48 µM; in assay [6], above 1.48 µM; in [7] it was 0.104 µM. In addition, in [8], the TGI is 0.00108 µM and < 0.000148 µM.

Regarding `CC(C)(C)C1CC[C@H]2c3c([nH]c4ccc(Br)cc34)[C@H]3C(=O)N(c4ccccc4)C(=O)[C@H]3[C@H]2C1` (some centres not stated), the TGI in [1] was 11.8 µM; in assay [2], above 100 µM; in assay [10], 40.8 µM; in assay [4], 44.2 µM; in [5], 78.7 µM; in [6], above 100 µM. The TGI in assay [7] is 71.6 µM; in assay [8], above 100 µM.

As to `CC12CC3c4ccccc4CN1C3(c1ccccc1)OC2=O` (configuration not stated), the TGI in assay [1], in [2], in assay [11], in assay [3], in assay [10] and in [4] was above 100 µM throughout. Also, the TGI in assay [6], in assay [7] and in assay [9] was above 100 µM in each case.

Turning to `CCCCCCC1CCC2CCCC(C)N12` (configuration not stated), the TGI in [1] was above 100 µM; in assay [2] it was above 100 µM; in assay [4] it was 34.1 µM; in [5], above 100 µM; in [6] it was above 100 µM; in assay [7], 47.1 µM. In assay [8], this molecule returned a TGI above 100 µM.

For the molecule `c1cnc2c(c1)-n1cccc1C1(CCOCC1)NN2`, the TGI in [1], in assay [2], in [3], in assay [10], in assay [4] and in assay [5] was above 100 µM throughout. Moreover, the TGI in assay [6], in assay [7] and in [8] was above 100 µM throughout.

Take `C1=C2SSC3=CC=C(SSc4ccc(s4)SSC4=CC=C(SSC(=C1)S2)S4)S3`: the TGI in [1], in assay [2], in [3], in assay [10], in assay [4] and in [5] was above 100 µM throughout. Moreover, the TGI in assay [6], in assay [7], in assay [8] and in [9] was above 100 µM each time.

With `O=C(/C=C/c1ccc(OCCCCCCCCCCOc2ccc(/C=C/C(=O)c3ccc(Cl)cc3)cc2)cc1)c1ccc(Cl)cc1`, the TGI in [1], in [2], in [3], in [10], in assay [4] and in assay [5] was above 100 µM in each case. Also, the TGI in assay [6], in assay [7] and in assay [8] was above 100 µM throughout.

With `CC(C)CN1CN(c2ccccc2)C2(CCN(CC(C)(c3ccc(F)cc3)C3OCCO3)CC2)C1=O` (configuration not stated), the TGI was found to be 29.3 µM in [1]; 24.4 µM in assay [2]; 16.8 µM in assay [11]; 14.3 µM in assay [10]; 3.71 µM in assay [4]; 9.77 µM in assay [6]. The figures for the TGI in [7], in assay [8] and in assay [9] were 7.32 µM, 22.4 µM and 14.8 µM, respectively.

Take `On1c(-c2ccccc2)c(-c2c(-c3ccccc3)n(O)c3ccccc23)c2ccccc21`: the TGI in assay [1] was above 100 µM; in [10], 80.6 µM; in [6], 53 µM; in [7], above 100 µM; in [8], above 100 µM.

For `O=C(NCCNCCO)N/N=C/c1cccc([N+](=O)[O-])c1`, the TGI in assay [1], in assay [2], in [3], in assay [10], in assay [4] and in assay [5] was above 100 µM throughout. In addition, the TGI in assay [6], in [7] and in [8] was above 100 µM each time.

With `Oc1ccc(-c2cc(-c3c(O)cc(O)cc3O)on2)cc1`, the TGI in assay [1], in assay [2], in assay [11], in assay [10], in assay [6] and in assay [7] was above 100 µM in each case. Also, the TGI in assay [8] and in assay [9] was above 100 µM each time.

`COC(=O)OCC1OC(N2C(=O)NC(=O)C(I)C2N=[N+]=[N-])CC1OC(=O)OC` (configuration not stated): the TGI in assay [1], in assay [2], in assay [10], in assay [4], in [5] and in assay [6] was above 100 µM throughout. Further, the TGI in assay [7] and in assay [8] was above 100 µM in each case.

`Cc1cc(Br)c(N2C3=C(CC4=C2CCCC4=O)C(=O)CCC3)c(Br)c1`: the TGI is above 100 µM in assay [1]; above 100 µM in assay [2]; above 100 µM in assay [11]; above 100 µM in [3]; above 100 µM in assay [10]; 94.3 µM in [5]. In addition, the TGI in assay [6], in assay [7] and in assay [8] was above 100 µM in each case.

In the case of `O=C(NC1CCCCC1)c1c(O)[nH]c(=S)[nH]c1=O`, the TGI in assay [1], in assay [2], in assay [3], in assay [10], in [4] and in assay [5] was above 100 µM throughout. Also, the TGI in assay [6], in assay [7] and in [8] was above 100 µM each time.

Consider `COC(=O)OC[C@H]1O[C@@H](n2cc(C)c(=O)[nH]c2=O)CC1OC(=O)OC` (some centres not stated), for which the TGI in assay [1], in [11], in assay [3], in assay [10], in [4] and in assay [6] was above 100 µM throughout. For the same molecule, the TGI in assay [7], in assay [8] and in assay [9] was above 100 µM in each case.

In the case of `COC(=O)c1ccc(CN2CCc3c([nH]c4ccccc34)C2CO)o1` (configuration not stated), the TGI in assay [1], in assay [2], in [10], in assay [4], in assay [5] and in [7] was above 10 µM throughout. The TGI in assay [8] and in assay [9] was above 10 µM in each case.

As for `Oc1c(Cl)c2nccnc2c2ccccc12`, the TGI in assay [1], in assay [3], in [10], in assay [4], in assay [5] and in assay [6] was above 100 µM in each case. Moreover, the TGI in assay [7] and in [8] was above 100 µM in each case.

Regarding `COc1c2cc(C(C)(C)C)cc1CSCc1cc(C(C)(C)C)cc(c1OC)CCCCC2`, the TGI in assay [1], in assay [11], in assay [3], in [10], in assay [4] and in assay [6] was above 50 µM in each case. Further, the TGI in assay [7], in assay [8] and in assay [9] was above 50 µM throughout.

The record behind these values is PubChem BioAssay (NCI).
